Where a name gives a salt, the structure may show the parent alone.

The target in this experiment is GABAa receptor. Put plainly: GABAa receptor binding assay, displacement of 3H-RO15-1788 from rat cortical tissue. The conditions noted are these: 0.5 nM 3H-RO15-1788, rat cortical homogenate, 4° C., nonspecific binding with 1.0 μM diazepam. The method, then:
The pharmaceutical utility of compounds of this invention are indicated by the following assay for GABAa receptor activity.
Assays are carried out as described in Thomas and Tallman (J. Bio. Chem. 156: 9838-9842, J. Neurosci. 3:433-440, 1983). Rat cortical tissue is dissected and homogenized in 25 volumes (w/v) of 0.05M Tris HCl buffer (pH 7.4 at 4° C.). The tissue homogenate is centrifuged in the cold (4°) at 20,000×g for 20'. The supernatant is decanted and the pellet is rehomogenized in the same volume of buffer and again centrifuged at 20,000×g. The supernatant is decanted and the pellet is frozen at -20° C. overnight. The pellet is then thawed and rehomogenized in 25 volume (original wt/vol) of buffer and the procedure is carried out twice. The pellet is finally resuspended in 50 volumes (w/vol of 0.05M Tris HCl buffer (pH 7.4 at […]).
Incubations contain 100 μl of tissue homogenate, 100 μl of radioligand 0.5 nM (^3 H-RO15-1788 specific activity 80 Ci/mmol), drug or blocker and buffer to a total volume of 500 μl. Incubations are carried for 30 rain at 4° C. then are rapidly filtered through GFB filters to separate free and bound ligand. Filters are washed twice with fresh 0.05M Tris HCl buffer (pH 7.4 at 4° C.) and counted in a liquid scintillation counter 1.0 μM diazepam is added to some tubes to determine nonspecific binding. Data are collected in triplicate determinations, averaged and % inhibition of total specific binding is calculated. Total Specific Binding=Total-Nonspecific. In some cases, the amounts of unlabeled drugs is varied and total displacement curves of binding are carried out. Data are converted to a form for the calculation of IC50 and Hill Coefficient (nH).
(In general: In a radioligand displacement assay an active substance lowers the binding of a labelled ligand.)
For orientation: IC50 means the midpoint of a concentration-inhibition curve. Low values mean greater potency, high ones weaker potency. Regarding `CCOC(=O)C1CCc2[nH]c(=O)n3cc(-c4ccccc4F)nc3c2C1` (stereo not shown) [Compound 1, 9-Carboethoxy-2-(2-fluorophenyl)-7,8,9,10-tetrahydro-imidazo[1,2-c]-quinazolin-5(6H)-one], the IC50 is 0.007 µM.

On to `O=c1[nH]c2c(c3nc(-c4ccccc4F)cn13)CCCC2` [Compound 5, 2-(2-Fluorophenyl)-7,8,9,10-tetrahydro-imidazo[1,2-c]-quinazolin-5(6H)-one], for which the IC50 worked out at 0.007 µM.

As for `O=c1[nH]c2c(c3nc(-c4ccccc4)cn13)CCC2` [Compound 12, 2-Phenyl-8,9-dihydro-7H-cyclopent[g]-imidazo[1,2-c]-pyrimidin-5(6H)-one], the IC50 was 0.4 µM.

`O=c1[nH]c2c(c3nc(-c4ccccc4)cn13)CCCCC2` [Compound 13, 2-Phenyl-8,9,10,11-tetrahydro-7H-cyclohept[g]-imidazo[1,2-c]pyrimidin-5(6H)-one] yielded an IC50 of 0.8 µM.

Molecule `CC(C)OC(=O)C1CCc2[nH]c(=O)n3cc(-c4ccccc4F)nc3c2C1` (stereo not shown) [Compound 14, 9-Carboisopropoxy-2-(2-fluorophenyl)-7,8,9,10-tetrahydro-imidazo[1,2-c]-quinazolin-5(6H)-one] showed an IC50 of 0.01 µM.

`CN(C)C(=O)C1CCc2[nH]c(=O)n3cc(-c4ccccc4F)nc3c2C1` (stereo not shown) [Compound 18, 9-(N,N-Dimethylcarbamyl)-2-(2-fluorophenyl)-7,8,9,10-tetrahydro-imidazo[1,2-c]-quinazolin-5(6H)-one] registered an IC50 of 0.01 µM.

`CN(C)CC1CCc2[nH]c(=O)n3cc(-c4ccccc4F)nc3c2C1` (stereo not shown) [Compound 24, 9-(N,N-Dimethylaminomethyl)-2-(2-fluoropenyl)-7,8,9,10-tetrahydro-imidazo[1,2-c]-quinazolin-5(6H)-one monohydrochloride] yielded an IC50 of 0.03 µM.

For the molecule `CC(C)(C)OC(=O)NC1CCc2[nH]c(=O)n3cc(-c4ccccc4F)nc3c2C1` (stereo not shown) [Compound 28, 9-(t-Butoxycarbonylamino)-2-(2-fluorophenyl)-7,8,9,10-tetrahydro-imidazo[1,2-c]-quinazolin-5(6H)-one], the IC50 is 0.15 µM.

The molecule `Fc1ccccc1-c1cn2c(NCc3ccccc3)nc3c(c2n1)CCCC3` [Compound 31, 5-(N-benzylamino)-2-(2-fluorophenyl)-7,8,9,10-tetrahydro-imidazo[1,2-c]-quinazoline] showed an IC50 of 2 µM.

Turning to `Nc1nc2c(c3nc(-c4ccccc4F)cn13)CCCC2` [Compound 33, 5-Amino-2-(2-fluorophenyl)-7,8,9,10-tetrahydro-imidazo[1,2-c]-quinazoline], the IC50 stood at 0.1 µM.

For `CCOc1nc2c(c3nc(-c4ccccc4F)cn13)CCCC2` [Compound 39, 5-Ethoxy-2-(2-fluorophenyl)-7,8,9,10-tetrahydro-imidazo[1,2-c]-quinazoline], the IC50 came out at 5 µM.

Turning to `COc1ccc(-c2cn3c(=O)[nH]c4c(c3n2)CCCC4)cc1` [Compound 50, 2-(4-Methoxyphenyl)-7,8,9,10-tetrahydro-imidazo[1,2-c]-quinazolin-5(6H)-one], the IC50 came out at 0.05 µM.

With `COc1ccc(-c2cn3c(=O)[nH]c4c(c3n2)CCCC4)c(F)c1` [Compound 51, 2-(2-Fluoro-4-methoxyphenyl)-7,8,9,10-tetrahydro-imidazo[1,2-c]-quinazolin-5(6H)-one], the IC50 was 0.003 µM.

(Values after patent US5426186A (priority 1993, dated 1995).)
